Measured values published in patent US4959373A, “Bispidine derivatives as class III antiarrhythmic agents” (BASF Aktiengesellschaft, priority 1987, dated 1990).
Where a name gives a salt, the structure may show the parent alone.

system: QT interval; test: Antiarrhythmic Class III action in guinea pigs after intravenous administration (QT interval prolongation in the ECG); assay type: in vivo, Pirbright white guinea pigs; settings: Cavia porcellus, anesthetized with urethane, ED 20% from linear relationship between log dose and relative QT prolongation (Δ%)
Protocol: The experimental animals used are male and female Pirbright white guinea pigs weighing from 300 to 500 g. Anesthesia is effected with 1.5 g/kg of urethane administered intraperitoneally. The substances are administered intravenously. To measure the ECG conduction times and the heart rate, the II. limb lead is recorded. The relevant parameters are the QT and PQ intervals and the heart rate. From 4 to 6 animals are used per dose. The criterion for Class III action is an increase in the QT interval compared with the values prior to administration of the substance. An increase in the PQ interval and a sharp decrease in the heart rate serve as exclusion criteria. The ED 20% is calculated from the linear relationship between log dose (mg/kg) of the substance and the relative prolongation of the QT interval (Δ%).

`Nc1ccc(C(=O)N2CC3CC(CN(Cc4ccccc4)C3)C2)cc1` [Ambasilide, reference compound] and `O=C(c1ccc(Cl)cc1)N1CC2CC(CN(Cc3ccccc3)C2)C1` [Example 2, 7-benzyl-3-(4-chlorobenzoyl)-3,7-diazabicyclo[3.3.1]nonyl hydrochloride] are within 1.5-fold of each other in ED (20%): 6.3 mg/kg for the first, 4.6 mg/kg for the second.

`CC(C)NC[C@@H](O)c1ccc(NS(C)(=O)=O)cc1` [D-sotalol, reference compound] and `Cc1ccc(NC(=O)N2CC3CC(CN(Cc4ccccc4)C3)C2)cc1` [Example 21, 7-Benzyl-3-(4-methylphenylcarbamyl)-3,7-diazabicyclo[3.3.1]nonane] are within 1.5-fold of each other in ED (20%): 3.6 mg/kg for the first, 2.6 mg/kg for the second.

Going from `O=C(Nc1ccc(Cl)cc1)N1CC2CC(CN(Cc3ccccc3)C2)C1` [Example 23, 7-Benzyl-3-(4-chlorophenylcarbamyl)-3,7-diazabicyclo[3.3.1]nonane] to `O=C(Nc1ccccc1)N1CC2CC(CN(Cc3ccc(Cl)cc3)C2)C1` [Example 26, 3-(Phenylcarbamyl)-7-(4-chlorobenzyl)-3,7-diazabicyclo[3.3.1]nonane], the ED (20%) rises from 2.4 mg/kg to 3.6 mg/kg (1.5-fold).
